Measured values published in patent US8598175B2, “Heteroarylamide pyrimidone derivatives” (Sanofi, priority 2007, dated 2013).

Key:
[1] = target: GSK3β (Homo sapiens, UniProt P49841); test: Inhibitory activity against GSK3β (33P-ATP phosphorylation of prephosphorylated GS1 peptide, two protocols); type: biochemical; settings: first or second protocol not specified
Method: Inhibitory Activity of the Medicament of the Present Invention Against GSK3β
Two different protocols can be used.
In a first protocol: 7.5 μM of prephosphorylated GS1 peptide and 10 μM ATP (containing 300,000 cpm of ^33P-ATP) were incubated in 25 mM Tris-HCl, pH 7.5, 0.6 mM DTT, 6 mM MgCl2, 0.6 mM EGTA, 0.05 mg/ml BSA buffer for 1 hour at room temperature in the presence of GSK3beta (total reaction volume: 100 microliters).
In a second protocol: 4.1 μM of prephosphorylated GS1 peptide and 42 μM ATP (containing 260,000 cpm ^33P-ATP) were incubated in 80 mM Mes-NaOH, pH 6.5, 1 mM Mg acetate, 0.5 mM EGTA, 5 mM 2-mercaptoethanol, 0.02% Tween 20, 10% glycerol buffer for 2 hours at room temperature in the presence of GSK3beta.
Inhibitors were solubilized in DMSO (final solvent concentration in the reaction medium, 1%).
The reaction was stopped with 100 microliters of a solution made of 25 g polyphosphoric acid (85% P2O5), 126 ml 85% H3PO4, […] to 500 ml and then diluted to 1:100 before use. An aliquot of the reaction mixture was then transferred to Whatman P81 cation exchange filters and rinsed with the solution described above. Incorporated ^33P radioactivity was determined by liquid scintillation spectrometry.
The phosphorylated GS-1 peptide had the following sequence: NH2-[…](P)EDEE-COOH. SEQ ID NO: 1 (Woodgett, J. R. (1989) Analytical Biochemistry 180, 237-241.

Sequence of GSK3β (P49841 whole entry): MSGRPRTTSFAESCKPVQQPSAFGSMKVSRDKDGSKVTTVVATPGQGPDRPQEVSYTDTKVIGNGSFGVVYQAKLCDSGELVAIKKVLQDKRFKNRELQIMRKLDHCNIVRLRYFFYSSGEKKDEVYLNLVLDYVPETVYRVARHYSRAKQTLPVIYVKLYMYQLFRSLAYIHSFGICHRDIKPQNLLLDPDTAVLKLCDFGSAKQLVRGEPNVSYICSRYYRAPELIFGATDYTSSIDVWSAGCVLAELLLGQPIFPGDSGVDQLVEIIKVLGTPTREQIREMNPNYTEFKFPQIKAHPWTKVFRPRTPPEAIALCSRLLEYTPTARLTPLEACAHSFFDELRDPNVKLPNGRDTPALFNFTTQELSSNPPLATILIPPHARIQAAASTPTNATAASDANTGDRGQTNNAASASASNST

melting point: 317 to 319 °C
IC50 [1]: 5 nM
SMILES: Cn1c(CNC(=O)c2ccc3ncccc3n2)nc(-c2ccncn2)cc1=O [compound 4, [1,5]Naphthyridine-2-carboxylic acid (1-methyl-6-oxo-1,6-dihydro-[4,4]bipyrimidinyl-2-ylmethyl)-amide]
